Source: ChEMBL document CHEMBL5634091, “Cantharidin analogue alleviates dextran sulfate sodium-induced colitis in mice by inhibiting the activation of NF-κB signaling” (Eur J Med Chem, 2023)
Activity calls are given as the source filed them. The calls are words filed in the database; no cut-off is given here.

Columns and labels:
DLD-1 [1] = assay: Effect on p38 protein expression in TNF-alpha stimulated human DLD-1 cells at 6.25 to 50 uM preincubated for 4 hrs and followed TNF-alpha stimulation and measured after 10 mins by Western blot analysis; format: functional, cell-based; conditions: dose 6.25-50 µM, time 250.0 min
[2] = target: T1, NF-kappa-B inhibitor alpha (Homo sapiens) (UniProt P25963); assay: Inhibition of proteasomal degradation of IkappaBalpha in TNF-alpha induced human DLD-1 cells assessed as increase in IkappaBalpha protein expression at 12.5 to 50 uM preincubated for 4 hrs and followed TNF-alpha stimulation and measured after 10 mins by Western blot analysis; format: cell-based; conditions: dose 12.5-50 µM, time 250.0 min
T1 sequence (whole entry): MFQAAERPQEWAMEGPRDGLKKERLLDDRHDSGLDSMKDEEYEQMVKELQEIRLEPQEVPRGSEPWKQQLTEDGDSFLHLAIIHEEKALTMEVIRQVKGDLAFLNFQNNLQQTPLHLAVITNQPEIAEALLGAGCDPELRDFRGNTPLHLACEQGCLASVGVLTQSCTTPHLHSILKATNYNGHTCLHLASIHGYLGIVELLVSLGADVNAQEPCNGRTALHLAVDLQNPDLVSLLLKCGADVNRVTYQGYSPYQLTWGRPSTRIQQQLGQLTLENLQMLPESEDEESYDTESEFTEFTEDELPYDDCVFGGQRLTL

Mus musculus [3] = assay: Anti-inflammatory activity in C57BL/6 mouse model of DSS-induced acute ulcerative colitis assessed as reduction in histopathological changes of granulocyte infiltration at 100 to 300 mg/kg, po administered once a day for 7 days by H and E staining based analysis; format: functional, organism-based; conditions: dose 100-300 mg/kg, time 7.0 day
[4] = Toxicity in Kunming mouse assessed as increase in body weight at 400 mg/kg, po measured for 15 days (reference value: 12.38%); format: organism-based; conditions: in vivo, 360 h, time 15 day
[5] = Toxicity in C57BL/6 mouse model of DSS-induced acute ulcerative colitis assessed as effect on heart tissue at 100 to 300 mg/kg, po administered once a day for 7 days by H and E staining based analysis; format: organism-based; conditions: in vivo, 168 h, dose 100-300 mg/kg, time 7 day
Mus musculus [6] = assay: Anti-inflammatory activity in po dosed C57BL/6 mouse model of DSS-induced acute ulcerative colitis assessed as reduction in IL-1beta mRNA expression in colon administered once a day for 7 days by RT-PCR analysis; format: functional, organism-based; conditions: dose 100-300 mg/kg, time 7.0 day
DLD-1 [7] = assay: Upregulation of ERK protein expression in TNF-alpha stimulated human DLD-1 cells at 50 uM preincubated for 4 hrs and followed TNF-alpha stimulation and measured after 10 mins by Western blot analysis; format: functional, cell-based; conditions: time 250.0 min
Mus musculus [8] = assay: Anti-inflammatory activity in C57BL/6 mouse model of DSS-induced acute ulcerative colitis assessed as reversal of DSS-induced weight loss at 100 to 300 mg/kg, po administered once a day for 7 days; format: functional, organism-based; conditions: dose 100-300 mg/kg, time 7.0 day
[9] = target: T1, NF-kappa-B inhibitor alpha (Homo sapiens); assay: Inhibition of proteasomal degradation of IkappaBalpha in TNF-alpha induced human HCT-116 cells assessed as increase in IkappaBalpha protein expression at 12.5 to 50 uM preincubated for 4 hrs and followed TNF-alpha stimulation and measured after 10 mins by Western blot analysis; format: cell-based; conditions: dose 12.5-50 µM, time 250.0 min
HCT-116 [10] = assay: Upregulation of ERK protein expression in TNF-alpha stimulated human HCT-116 cells at 50 uM preincubated for 4 hrs and followed TNF-alpha stimulation and measured after 10 mins by Western blot analysis; format: functional, cell-based; conditions: time 250.0 min
[11] = Toxicity in Kunming mouse assessed as number of mouse survived at 1852 mg/kg, po measured for 15 days; format: organism-based; conditions: in vivo, 360 h, time 15 day
RAW264.7 = assay: Antiinflammatory activity in mouse RAW264.7 cells assessed as inhibition in LPS/IFNgamma-induced NO production preincubated for 2 hrs followed by LPS/IFNgamma stimulation and measured after 24 hrs by Griess reagent based assay; format: functional, cell-based
[12] = Toxicity in C57BL/6 mouse model of DSS-induced acute ulcerative colitis assessed as effect on kidney tissue at 100 to 300 mg/kg, po administered once a day for 7 days by H and E staining based analysis; format: organism-based; conditions: in vivo, 168 h, dose 100-300 mg/kg, time 7 day
Mus musculus [13] = assay: Anti-inflammatory activity in po dosed C57BL/6 mouse model of DSS-induced acute ulcerative colitis assessed as decrease in TNF-alpha expression in serum administered once a day for 7 days by ELISA; format: functional, organism-based; conditions: dose 100-300 mg/kg, time 7.0 day
Mus musculus [14] = assay: Anti-inflammatory activity in C57BL/6 mouse model of DSS-induced acute ulcerative colitis assessed as increase in IL-10 mRNA expression in colon at 100 to 300 mg/kg, po administered once a day for 7 days by RT-PCR analysis; format: functional, organism-based; conditions: dose 100-300 mg/kg, time 7.0 day
DLD-1 [15] = assay: Inhibition of TNF-alpha induced NF-kB activation in human DLD-1 cells assessed as decrease in phosphorylated IKK protein expression preincubated for 4 hrs and followed TNF-alpha stimulation and measured after 10 mins by Western blot analysis; format: cell-based; conditions: dose 12.5-50 µM, time 250.0 min
[16] = Cytotoxicity against human HCT-116 cells assessed as inhibition in cell proliferation; format: toxicity, cell-based
Mus musculus [17] = assay: Anti-inflammatory activity in po dosed C57BL/6 mouse model of DSS-induced acute ulcerative colitis assessed as reduction in COX2 mRNA expression in colon administered once a day for 7 days by RT-PCR analysis; format: functional, organism-based; conditions: dose 100-300 mg/kg, time 7.0 day
Mus musculus [18] = assay: Anti-inflammatory activity in po dosed C57BL/6 mouse model of DSS-induced acute ulcerative colitis assessed as reduction in IL-17A mRNA expression in colon administered once a day for 7 days by RT-PCR analysis; format: functional, organism-based; conditions: dose 100-300 mg/kg, time 7.0 day
DLD-1 [19] = assay: Upregulation of JNK protein expression in TNF-alpha stimulated human DLD-1 cells at 50 uM preincubated for 4 hrs and followed TNF-alpha stimulation and measured after 10 mins by Western blot analysis; format: functional, cell-based; conditions: time 250.0 min
[20] = Inhibition of TNF-alpha induced NF-kappaB activation in HEK293T cells preincubated for 4 hrs and followed by TNF-alpha stimulation and measured after 4 hrs by dual-luciferase reporter assay; format: cell-based; conditions: Homo sapiens, HEK-293T
[21] = Toxicity in Kunming mouse assessed as increase in body weight at 1852 mg/kg, po measured for 15 days (reference value: 12.38%); format: organism-based; conditions: in vivo, 360 h, time 15 day
DLD-1 [22] = assay: Inhibition of TNF-alpha induced activation of MAPK signaling pathway in human DLD-1 cells assessed as change in phosphorylated p38 level at 6.25 to 50 uM preincubated for 4 hrs and followed TNF-alpha stimulation and measured after 10 mins by Western blot analysis; format: cell-based; conditions: dose 6.25-50 µM, time 250.0 min
[23] = Cytotoxicity against TNF-alpha induced HEK293T cells assessed as inhibition of cell growth preincubated for 24 hrs followed by TNFalpha stimulation and measured after 4 hrs by SRB assay; format: toxicity, cell-based, HEK-293T; conditions: human, HEK293T cells induced with TNF-alpha; time 28 hrs
[24] = Toxicity in Kunming mouse assessed as number of mouse survived at 1111 mg/kg, po measured for 15 days; format: organism-based; conditions: in vivo, 360 h, time 15 day
HCT-116 [25] = assay: Inhibition of TNF-alpha-induced NF-kappaB nuclear translocation in human HCT-116 cells preincubated for 4 hrs followed by TNF-alpha stimulation and measured after 30 mins by immunofluorescence staining based laser scanning confocal microscopic analysis; format: cell-based; conditions: dose 25-50 µM, time 4.5 hrs
[26] = Cytotoxicity against human DLD-1 cells assessed as inhibition in cell proliferation; format: toxicity, cell-based
Mus musculus [27] = assay: Anti-inflammatory activity in C57BL/6 mouse model of DSS-induced acute ulcerative colitis assessed as reduction in submucosal edema at 100 to 300 mg/kg, po administered once a day for 7 days by H and E staining based analysis; format: functional, organism-based; conditions: dose 100-300 mg/kg, time 7.0 day

COC(=O)C1=C(C(=O)OC)C2OC1CC2C#Cc1ccc(C)cc1 (stereo not drawn)
Activity (DLD-1 [1]): inactive
inhibition [2]: Active
Activity (Mus musculus [3]): Active
Activity [4]: 13.21%
Activity [5]: Non-Toxic
Activity (Mus musculus [6]): Dose-Dependent Effect
Activity (DLD-1 [7]): Active
Activity (Mus musculus [8]): Active
inhibition [9]: Active
Activity (HCT-116 [10]): Active
Activity [11]: 0
IC50 (RAW264.7): 2.66 µM
Activity [12]: Non-Toxic
Activity (Mus musculus [13]): Dose-Dependent Effect
Activity (Mus musculus [14]): Active
inhibition (DLD-1 [15]): Dose-Dependent Effect
IC50 [16]: 14.3 µM
Activity (Mus musculus [17]): Dose-Dependent Effect
Activity (Mus musculus [18]): Dose-Dependent Effect
Activity (DLD-1 [19]): Active
IC50 [20]: 16.1 µM
Activity [21]: 15.38%
inhibition (DLD-1 [22]): inactive
CC50 at 4 h [23]: 94.3 µM
Activity [24]: 0
inhibition (HCT-116 [25]): Dose-Dependent Effect
IC50 [26]: 8.24 µM
Activity (Mus musculus [27]): Active
